From paper PMC10584170, “Machine learning-based phenotypic imaging to characterise the targetable biology of Plasmodium falciparum male gametocytes for the development of transmission-blocking antimalarials” (PLOS Pathogens, 2023)
Read-outs that look alike come from different tables or passages of the source.

How the values were obtained:
[1] = test system: P. falciparum male gametocytes; test: PhIDDLI timecourse assay, compound added at timepoints after triggering male gametogenesis; type: cell-based, Plasmodium falciparum NF54
Experimental: To gain greater understanding of their activity, selected molecules displaying different inhibition phenotypes in the initial screen were re-tested. Rather than subjecting gametocytes to a 24h preincubation prior to inducing gametogenesis, compounds were added at varying timepoints after triggering male gametogenesis. Samples were then fixed 20 min post-induction, imaged and analysed similarly using the PhIDDLI pipeline.
Alternatively, if compound action over time was to be assessed, 1.5ml tubes with appropriate dilutions of test compounds were prepared for each timepoint. Gametogenesis was then triggered in the mature gametocyte culture with ookinete medium and temperature decrease from 37°C. At appropriate times, 200 μl of triggered culture was sampled and mixed with test compound. All samples were then allowed to continue gametogenesis and fixed as described previously with paraformaldehyde after 20 min (when a DMSO-treated sample could be expected to be exflagellating).
100 μl of the fixed cell suspensions were added to wells of a 24 well plate containing 1ml PBS and a poly-l-lysine-coated glass coverslip. Cells were allowed to settle and adhere to the coverslip overnight at 4°C before coverslips were transferred to a hydrophobic membrane (Parafilm) for immunofluorescence staining in a humidified, dark box. Cells were permeabilised with 0.1% Triton-X100 in PBS for 10 min before washing in PBS three times. Non-specific binding was blocked by incubating coverslips with PBS + 10% fetal bovine serum (FBS) (blocking buffer) for 1 h. Gametocytes and microgametes were visualised by labelling with an anti-alpha tubulin antibody (raised from chicken embryo brain tubulin but cross-reacts with many other species) (clone DM1A (Sigma)) 1:500 dilution in blocking buffer for 1 h, washed as before, and then stained with an anti-mouse Alexa488 secondary antibody (Thermo-Fisher) 1:1,000 dilution in blocking buffer for a further 1 h. After a final series of washes, the coverslips were mounted on glass slides with VectaShield mountant (Vector Laboratories) containing 4′,6-diamidino-2-phenylindole (DAPI) to visualise cellular DNA.
All slides were imaged using a Nikon Ti fluorescence microscope using an x100 oil objective and 1.5x zoom. For each sample, tubulin-postive, DAPI-positive stained gametocytes/gametes were imaged at random. Z-stack images with 0.3μm slices were captured for each field of view and images deconvolved and transformed by maximum intensity projection within the Nikon NIS Elements software. Within raw images, cells were initially identified by an automated analysis pipeline developed in ICY Bioimage Analysis based upon the intensity of the tubulin staining captured which assigns a region of interest (ROI) around each cell. All ROIs were reviewed by a trained operator and adjusted if necessary to reflect the true outline of the cell (for example if two cells touching had been allocated the same ROI). Raw images contained between 1 and 8 extractable cells.
Code for the PhIDDLI pipeline was written in Python 3.8 and executed by command line within a 64-bit Ubuntu virtual machine running within Oracle VM VirtualBox 6.1. […] Principle component analysis of compound phenotypes (Fig 5) was performed using ClustViz (https://biit.cs.ut.ee/clustvis/) using ln(x+1) transformation, and k-means clustering of the resultant PCA data was coded in R and executed in R Studio version 1.1.456 to identify optimum cluster using the elbow method.

[2] = test system: P. falciparum female gametocytes; test: P. falciparum Dual Gamete Formation Assay (PfDGFA), female readout (Pfs25-positive female gametes); type: cell-based, Plasmodium falciparum NF54; details: for IC50: this study, read-out: Pf DGFA IC50 FEM
Summary of the method: (§1)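 Two sex-specific readouts come from one well: male exflagellation centres recorded by brightfield video right after activation, and female gametes scored by Cy3-anti-Pfs25 fluorescence after 24 h at 28°C.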

[3] = test system: P. falciparum male gametocytes; test: P. falciparum Dual Gamete Formation Assay (PfDGFA), male readout (exflagellation); type: cell-based, Plasmodium falciparum NF54; details: for IC50: this study, read-out: Pf DGFA IC50 MALE
Summary of the method: as §1

HepG2 cells [4] = test: HepG2 cytotoxicity counter-screen; details: for Mean TOX: mean of the HepG2 TOX50 values; for DGFA Tox50 HepG2: HepG2 value reported with the DGFA screen
[5] = test system: P. falciparum female gametocytes; set-up: method as in Miguel-Blanco et al 2017; details: ref Miguel-Blanco et al 2017; read-out: Pf female gametogenesis FGAA IC50; cited from earlier work
HepG2 cells [6] = details: cited from earlier work
[7] = test system: P. falciparum female gametocytes; test: P. falciparum Female Gametocyte Activation Assay (PfFGAA); type: cell-based, Plasmodium falciparum; details: Mean TOX HepG2 over FGAA IC50; GREEN = >10-fold; RED = <10-fold
From the text: (§2) Fig 1 The activity of TCAMS compound identified in the Pf DGFA screen. (A) 85 molecules were confirmed active in the Pf DGFA. 58 were previously identified in one or more transmission-blocking screens. […] No molecule was identified with >4.7-fold greater activity against female gametocytes. Abbreviations (IC50 = concentration giving 50% inhibition, PbODA = P. berghei Ookinete Development Assay, PfDGFA = P. falciparum Dual Gamete Formation Assay, PfFGAA = P. falciparum Female Gametocyte Activation Assay, PfGCT = P. falciparum Gametocyte Viability ATP Assay).

[8] = test system: P. berghei ookinete development; test: P. berghei Ookinete Development Assay (PbODA); type: cell-based, Plasmodium berghei; details: Mean TOX HepG2 over Pb ODA value; GREEN = >10-fold; RED = <10-fold
From the text: as §2

[9] = compound added concurrent with triggering male gametogenesis or 2 min later
[10] = compound added later than 2 min post-induction (up to 10 min)

IC50 [2] | Structure (SMILES) | impact on proportion of cells with replicated DNA ([1]; all timepoints of addition) | effect on exflagellation [1, 9] | effect on exflagellation [1, 10] | Cytotox ratio Pf Female [2] | Cytotox ratio Pf Male [3] | IC50 [3] | Mean TOX (HepG2 cells [4]) | cells showing apparent DNA replication ([1]; compound added concurrent with induction, fixed 20 min post-induction, DMSO control 61.4%) | amounts of cells showing evidence of DNA replication ([1]; compound added during the first 2 min of male gametogenesis) | IC50 [5] | FGAA TOX50 HepG2 (HepG2 cells [6]) | ODA TOX50 HepG2 (HepG2 cells [6]) | Cytotox ratio Pf FGAA [7] | Cytotox ratio Pb Ookinete [8] | DGFA Tox50 HepG2 (HepG2 cells [4]) | effect on exflagellation ([1]; compound added between 0 and 5 min post induction)
– | COCCN(C)CCCOc1cc2c(cc1OC)ncn2-c1cc(OCc2ccccc2C(F)(F)F)c(C(N)=O)s1.Cl [TC14] | minimal impact | substantially reduced | not inhibitory | 1.4 | 22.0 | 0.62 µM | 13.65 µM | – | – | – | – | – | – | – | – | –
– | CNC(=O)c1cnc(Nc2ccc(N3CCN(C)CC3)cc2)nc1Nc1ccccc1OC.O=C(O)C(F)(F)F [TC16] | – | substantially reduced | not inhibitory | 3.6 | 29.7 | 1.2 µM | 35.63 µM | 21.7% | markedly reduced | – | – | – | – | – | – | –
0.56 µM | Cn1c(Sc2ncnc3sccc23)nc2ccccc21 [TC34] | – | – | – | 178.6 | 138.9 | 0.72 µM | 100.00 µM | – | – | 1.25 µM | 100 µM | 100 µM | 80.0 | 156933.9 | 100 µM | –
7.4 µM | Cc1cc(Nc2ncc(C#N)c(Nc3ccccc3C(N)=O)n2)ccc1N1CCN(C)CC1.Cl [TC37] | – | – | – | 0.244 | 45.1 | 0.04 µM | 1.80 µM | – | – | 1.67 µM | 0.4 µM | 3.981 µM | 1.1 | 66058.5 | – | –
7.66 µM | Cc1ccc(S(=O)(=O)N(CCCNCc2cccc(O)c2)c2ccccc2)cc1 [TC44] | – | – | – | 4.8 | 119.3 | 0.31 µM | 36.97 µM | – | – | 1.14 µM | 44.67 µM | 34.6737 µM | 32.4 | 26220.7 | – | –
0.25 µM | Cc1ccc(-n2c(Sc3ncnc4sccc34)nnc2N2CCCC2)cc1 [TC46] | – | – | – | 315.2 | 207.3 | 0.38 µM | 78.79 µM | – | – | 0.49 µM | 89.13 µM | 74.1 µM | 160.8 | 177427.8 | – | –
1.43 µM | Cc1cc(C(=O)OCC(=O)Nc2c(C)n(C)n(-c3ccccc3)c2=O)c(C)n1-c1ccc(F)cc1 [TC63] | – | – | – | 41.8 | 31.4 | 1.9 µM | 59.75 µM | – | – | – | – | 19.5 µM | – | 166949.3 | 100 µM | –
– | COc1ccc2nc(-c3cc(-c4ccc(NC(C)=O)cc4)cnc3N)[nH]c2c1 [TC69] | – | – | – | 0.755 | 14.0 | 0.54 µM | 7.55 µM | – | – | – | – | 12.02 µM | – | 10513.6 | – | –
– | C#C[C@H]1O[C@@H](n2cnc3c(Nc4cc(Br)cc(C(F)(F)F)c4)ncnc32)[C@H](O)[C@@H]1O [TC70] | – | – | – | 7.9 | 262.6 | 0.3 µM | 78.77 µM | – | – | – | – | 57.54 µM | – | 88432.3 | 100 µM | –
– | COc1ccc(Nc2ncc(Cl)c(Nc3cccnc3C(N)=O)n2)cc1N1CCN(C)CC1.Cl [TC75] | – | – | – | 0.7 | 17.8 | 0.4 µM | 7.10 µM | – | – | – | – | 11.22 µM | – | 11414.1 | – | –
– | CCS(=O)(=O)Nc1ccc2c(c1)/C(=C(/Nc1ccc(CN3CCCCC3)cc1)c1ccccc1)C(=O)N2 [TC81] | – | – | – | 0.9 | 877.0 | 0.01 µM | 8.77 µM | – | – | – | – | 16.98 µM | – | 6770.0 | – | –
– | CC[C@]1(O)C[C@@H]2CN(CCc3c([nH]c4ccccc34)[C@@](C(=O)OC)(c3cc4c(cc3OC)N(C)[C@H]3[C@@](O)(C(=O)OC)[C@H](OC(C)=O)[C@]5(CC)C=CCN6CC[C@]43[C@@H]65)C2)C1 [vinblastine, reference compound] | – | – | – | – | – | – | – | – | – | – | – | – | – | – | – | strongly inhibited exflagellation

Structure (SMILES) | IC50 [2] | impact on proportion of cells with replicated DNA ([1]; all timepoints of addition) | effect on exflagellation [1, 9] | effect on exflagellation [1, 10] | Cytotox ratio Pf Female [2] | Cytotox ratio Pf Male [3] | IC50 [3] | Mean TOX (HepG2 cells [4]) | cells showing apparent DNA replication ([1]; compound added concurrent with induction, fixed 20 min post-induction, DMSO control 61.4%) | amounts of cells showing evidence of DNA replication ([1]; compound added during the first 2 min of male gametogenesis) | IC50 [5] | FGAA TOX50 HepG2 (HepG2 cells [6]) | ODA TOX50 HepG2 (HepG2 cells [6]) | Cytotox ratio Pf FGAA [7] | Cytotox ratio Pb Ookinete [8] | DGFA Tox50 HepG2 (HepG2 cells [4]) | effect on exflagellation ([1]; compound added between 0 and 5 min post induction)
Cc1cccc(Nc2nc(N[C@@H]3CCCNC3)nc3cc[nH]c(=O)c23)c1.O=C(O)C(F)(F)F [TC29] | 7.69 µM | – | – | – | 0.532 | 19.5 | 0.21 µM | 4.09 µM | – | – | 1.85 µM | 3.25 µM | 4.57 µM | 2.2 | 3922.6 | – | –
O=C(O)C(F)(F)F.O=c1[nH]ccc2nc(N[C@@H]3CCCNC3)nc(Nc3ccc(S(=O)(=O)N4CCOCC4)cc3)c12 [TC42] | 8.17 µM | – | – | – | 4.1 | 563.3 | 0.06 µM | 33.80 µM | – | – | – | – | 45.71 µM | – | 23182.4 | – | –
CN1CCN(c2ccc(Nc3ncc(C#N)c(Nc4ccccc4C(N)=O)n3)cc2)CC1.Cl [TC49] | 9.17 µM | – | – | – | 0.335 | 102.3 | 0.03 µM | 3.07 µM | – | – | – | – | 2.427 µM | – | 95106.6 | – | –
COc1ccc(Nc2ncc(OC)c(Nc3ccccc3C(N)=O)n2)cc1N1CCN(C)CC1.O=CO [TC59] | 7.91 µM | – | – | – | 1.2 | 52.0 | 0.18 µM | 9.37 µM | – | – | – | – | 13.49 µM | – | 19018.5 | – | –
